Test [1] deals with Eukaryotic initiation factor 4A-I (Mus musculus) (UniProt P60843). The test can be described thus: Binding affinity to eIF4A1 in mouse embryonic fibroblasts at 20 uM by streptavidin pulldown assay.
For test [2], the target named is Eukaryotic initiation factor 4A-I (Homo sapiens) (UniProt P60842). The experiment in a line: Inhibition of e1F4A1 (unknown origin) in rabbit reticulocyte assessed as capped-dependent translation incubated for 1 hr by dual glo luciferase assay.
Test [3] addresses Eukaryotic initiation factor 4A-II (Mus musculus) (UniProt P10630). The test can be described thus: Binding affinity to eIF4A2 in mouse embryonic fibroblasts at 20 uM by streptavidin pulldown assay.
Test [4] deals with T1, Prohibitin 1 (Mus musculus) (UniProt P67778).
T1 sequence (whole entry): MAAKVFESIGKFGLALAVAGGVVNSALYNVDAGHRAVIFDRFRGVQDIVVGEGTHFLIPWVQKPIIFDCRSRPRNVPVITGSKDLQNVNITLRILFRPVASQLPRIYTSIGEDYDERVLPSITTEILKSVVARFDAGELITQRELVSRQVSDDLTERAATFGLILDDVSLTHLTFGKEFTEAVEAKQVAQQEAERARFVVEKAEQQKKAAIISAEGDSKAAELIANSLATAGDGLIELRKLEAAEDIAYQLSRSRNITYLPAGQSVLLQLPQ
The experiment in a line: Binding affinity to prohibitin in mouse embryonic fibroblasts by Western blot method.

For test [5], the target named is Eukaryotic initiation factor 4A-II (Mus musculus) (UniProt P10630). The experiment in a line: Binding affinity to eIF4A2 in mouse embryonic fibroblasts by Western blot method.
Test [6] has as its target ATP-dependent RNA helicase DDX3X (Mus musculus) (UniProt Q62167). The test can be described thus: Binding affinity to DDX3 in mouse embryonic fibroblasts by Western blot method.
Test [7] concerns the target Eukaryotic initiation factor 4A-III (Mus musculus) (UniProt Q91VC3). The experiment in a line: Binding affinity to eIF4A3 in mouse embryonic fibroblasts by Western blot method.
Test [8] has as its target Eukaryotic translation initiation factor 4E (Mus musculus) (UniProt P63073). The test can be described thus: Binding affinity to eIF4E in mouse embryonic fibroblasts by Western blot method.
For test [9], the target named is Eukaryotic initiation factor 4A-I (Mus musculus) (UniProt P60843). The experiment in a line: Binding affinity to eIF4A1 in mouse embryonic fibroblasts by Western blot method.

The source made the active and inactive calls. No cut-off for these calls is given here.

The values that follow come from ChEMBL document CHEMBL3751752, “Total synthesis of a biotinylated rocaglate: Selective targeting of the translation factors eIF4AI/II” (Bioorg Med Chem Lett, 2016).

Eukaryotic initiation factor 4A-II (Mus musculus), sequence (P10630 whole entry): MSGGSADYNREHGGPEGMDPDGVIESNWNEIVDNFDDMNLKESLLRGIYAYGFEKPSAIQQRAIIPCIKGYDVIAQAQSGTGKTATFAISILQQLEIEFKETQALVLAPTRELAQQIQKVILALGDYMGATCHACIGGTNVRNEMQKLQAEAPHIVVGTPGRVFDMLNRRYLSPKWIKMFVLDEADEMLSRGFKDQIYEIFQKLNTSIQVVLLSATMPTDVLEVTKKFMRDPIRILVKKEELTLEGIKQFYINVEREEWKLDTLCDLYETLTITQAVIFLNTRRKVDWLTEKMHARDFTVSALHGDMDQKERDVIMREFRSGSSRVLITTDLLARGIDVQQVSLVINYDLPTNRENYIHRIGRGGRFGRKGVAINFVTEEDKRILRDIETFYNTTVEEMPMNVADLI
Eukaryotic initiation factor 4A-I (Mus musculus), sequence (P60843 whole entry): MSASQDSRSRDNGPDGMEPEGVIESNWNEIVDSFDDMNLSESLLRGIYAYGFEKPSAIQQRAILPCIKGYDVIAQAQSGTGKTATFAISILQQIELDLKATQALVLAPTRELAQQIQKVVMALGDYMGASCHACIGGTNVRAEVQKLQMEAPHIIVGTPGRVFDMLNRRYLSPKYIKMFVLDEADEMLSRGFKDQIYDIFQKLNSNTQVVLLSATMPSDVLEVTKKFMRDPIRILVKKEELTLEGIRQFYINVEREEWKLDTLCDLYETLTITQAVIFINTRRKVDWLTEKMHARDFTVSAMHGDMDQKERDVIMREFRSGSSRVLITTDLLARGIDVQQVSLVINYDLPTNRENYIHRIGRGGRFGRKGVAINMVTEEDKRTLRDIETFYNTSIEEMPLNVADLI
Eukaryotic initiation factor 4A-I (Homo sapiens), sequence (P60842 whole entry): as the sequence (P60843 whole entry) above
Eukaryotic initiation factor 4A-III (Mus musculus), sequence (Q91VC3 whole entry): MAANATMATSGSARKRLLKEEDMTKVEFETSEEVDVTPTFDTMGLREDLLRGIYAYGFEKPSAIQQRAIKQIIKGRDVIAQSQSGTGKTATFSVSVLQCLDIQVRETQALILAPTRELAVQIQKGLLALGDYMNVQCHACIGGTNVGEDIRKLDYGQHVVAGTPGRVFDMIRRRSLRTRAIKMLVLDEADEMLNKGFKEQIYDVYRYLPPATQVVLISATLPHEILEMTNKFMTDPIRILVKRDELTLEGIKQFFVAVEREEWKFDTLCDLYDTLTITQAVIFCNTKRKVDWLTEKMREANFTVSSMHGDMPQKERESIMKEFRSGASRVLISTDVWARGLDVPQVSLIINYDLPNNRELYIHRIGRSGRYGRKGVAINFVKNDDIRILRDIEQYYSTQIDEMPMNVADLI
ATP-dependent RNA helicase DDX3X (Mus musculus), sequence (Q62167 whole entry): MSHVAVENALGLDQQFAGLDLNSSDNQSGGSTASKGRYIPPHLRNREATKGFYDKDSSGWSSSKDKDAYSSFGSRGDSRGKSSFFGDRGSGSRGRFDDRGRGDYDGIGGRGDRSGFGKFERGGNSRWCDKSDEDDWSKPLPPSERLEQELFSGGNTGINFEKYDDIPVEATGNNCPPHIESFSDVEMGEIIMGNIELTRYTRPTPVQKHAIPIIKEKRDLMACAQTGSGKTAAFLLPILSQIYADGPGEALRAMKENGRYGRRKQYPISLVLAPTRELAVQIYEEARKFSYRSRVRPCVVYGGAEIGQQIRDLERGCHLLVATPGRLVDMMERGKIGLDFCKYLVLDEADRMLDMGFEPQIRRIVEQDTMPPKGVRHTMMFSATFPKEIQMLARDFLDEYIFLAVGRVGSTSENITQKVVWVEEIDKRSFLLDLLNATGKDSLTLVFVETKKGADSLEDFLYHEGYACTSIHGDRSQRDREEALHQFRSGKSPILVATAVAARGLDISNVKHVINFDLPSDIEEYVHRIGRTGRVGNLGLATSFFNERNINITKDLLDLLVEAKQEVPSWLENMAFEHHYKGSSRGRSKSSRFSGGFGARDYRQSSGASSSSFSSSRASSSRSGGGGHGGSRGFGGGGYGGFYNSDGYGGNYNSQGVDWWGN
Eukaryotic translation initiation factor 4E (Mus musculus), sequence (P63073 whole entry): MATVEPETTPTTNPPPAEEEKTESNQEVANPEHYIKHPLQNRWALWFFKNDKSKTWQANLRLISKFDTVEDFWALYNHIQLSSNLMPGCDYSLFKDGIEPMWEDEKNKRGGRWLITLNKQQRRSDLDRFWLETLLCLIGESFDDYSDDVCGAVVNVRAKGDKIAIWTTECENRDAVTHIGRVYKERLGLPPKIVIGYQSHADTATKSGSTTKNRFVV

Consider `COC(=O)[C@H]1[C@@H](O)[C@@]2(O)c3c(OC)cc(OC)cc3O[C@@]2(c2ccc(OC)cc2)[C@@H]1c1ccccc1`, for which the outcome in [1] and in test [3] was Active. In addition, the inhibition entry in test [2] is “Active”.

As to `COc1ccc([C@@]23Oc4cc(OC)cc(OC)c4[C@]2(O)[C@H](O)[C@H](C(=O)N(C)C)[C@H]3c2ccccc2)cc1`, the outcome in [1] and in test [3] was Active.

For `C#CCNC(=O)[C@H]1[C@@H](O)[C@@]2(O)c3c(OC)cc(OC)cc3O[C@@]2(c2ccc(OC)cc2)[C@@H]1c1ccccc1`, the inhibition result in test [2] was “Active”.

`COc1ccc([C@@]23Oc4cc(OC)cc(OC)c4[C@]2(O)[C@H](O)[C@H](C(=O)NCc2cn(CCCOCCOCCOCCCNC(=O)CCCC[C@@H]4SC[C@@H]5NC(=O)N[C@@H]54)nn2)[C@H]3c2ccccc2)cc1`: the outcome in test [4], in [6], in [7] and in test [8] was inactive. Also, the result in test [5], in [1], in test [9] and in [3] was Active. Besides, in test [2], the inhibition result is “Active”.

For the compound `COC(=O)[C@H]1[C@@H](O)[C@@]2(O)c3c(OC)cc(O[C@@H]4O[C@@H]([C@@H](O)CO)CO[C@H]4OC)cc3O[C@@]2(c2ccc(OC)cc2)[C@@H]1c1ccccc1`, the result in [1] and in test [3] was Active. Further, the inhibition entry in test [2] was “Active”.

Consider `O=C(O)CCCC[C@@H]1SC[C@@H]2NC(=O)N[C@@H]21`, for which the outcome in test [1] and in test [3] was inactive.

Turning to `COc1ccc([C@@]23Oc4cc(O[C@@H]5O[C@@H]([C@@H](O)CO)CO[C@H]5OC)cc(OC)c4[C@]2(O)[C@H](O)[C@H](C(=O)NCc2cn(CCCOCCOCCOCCCNC(=O)CCCC[C@@H]4SC[C@@H]5NC(=O)N[C@@H]54)nn2)[C@H]3c2ccccc2)cc1`, the result in [4], in [6], in [7] and in test [8] was inactive. Also, the result in test [5], in [1], in [9] and in test [3] was Active.

`COc1ccc([C@@]23Oc4cc(OC)cc(OC)c4[C@]2(O)[C@H](O)[C@H](C(=O)O)[C@H]3c2ccccc2)cc1`: the inhibition entry in test [2] is “Active”.
